The results in this text go back to patent US20170275298A1, “INHIBITORS OF THE RENAL OUTER MEDULLARY POTASSIUM CHANNEL” (Merck Sharp & Dohme Corp., priority 2014, published 2017).

The structures appear in SMILES notation.

This experiment addresses T1, hROMK (hKir1.1) (Homo sapiens, UniProt P48048).
T1 construct: expressed in transfected cells
T1 sequence (P48048 1-391): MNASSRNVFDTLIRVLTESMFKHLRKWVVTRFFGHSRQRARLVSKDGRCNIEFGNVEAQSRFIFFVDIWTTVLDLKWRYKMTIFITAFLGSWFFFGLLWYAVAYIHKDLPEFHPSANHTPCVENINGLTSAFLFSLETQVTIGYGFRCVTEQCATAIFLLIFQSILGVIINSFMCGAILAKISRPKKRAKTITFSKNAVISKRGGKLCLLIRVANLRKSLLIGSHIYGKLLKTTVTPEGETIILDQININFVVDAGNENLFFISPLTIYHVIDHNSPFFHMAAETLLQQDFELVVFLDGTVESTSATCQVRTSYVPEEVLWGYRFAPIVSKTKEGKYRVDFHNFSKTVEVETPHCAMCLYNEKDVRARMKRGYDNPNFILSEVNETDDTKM
Kind of experiment: Thallium Flux Assay (ROMK channel functional thallium flux assay). It is filed as cell-based. Particulars: HEK293 cells stably expressing hROMK (hKir1.1); FluxOR thallium flux, FLIPR-Tetra, 30 min compound incubation; read-out: ROMK TI IC50. The essentials:
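HEK293 cells stably expressing hROMK (hKir1.1) loaded with FluxOR dye 90 min at ambient temperature, then compound 30 min before thallium/potassium stimulant (final 3 mM Tl/0.3 mM K). ROMK-sensitive flux defined by 3 μM standard inhibitor; data as % fluorescence change.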
The IC50 is the concentration that inhibits the measured activity by half. For the molecule `Cc1c([C@@H](O)CN2CCC3(CC2)CCN(c2cccnn2)CC3)ccc2c1COC2=O` [Example 139, (R)-5-(1-hydroxy-2-(9-(pyridazin-3-yl)-3,9-diazaspiro[5.5]undecan-3-yl)ethyl)-4-methylisobenzofuran-1(3H)-one], the IC50 amounted to 251 nM. The value for `COC(=O)c1csc(N2CCC3(CCN(C[C@H](O)c4ccc5c(c4C)COC5=O)CC3)CC2)n1` [Example 140, (R)-methyl 2-(9-(2-hydroxy-2-(4-methyl-1-oxo-1,3-dihydroisobenzofuran-5-yl)ethyl)-3,9-diazaspiro[5.5]undecan-3-yl)thiazole-4-carboxylate] was 364 nM. The result for `COc1cnc(N2CCC3(CCN(C[C@H](O)c4ccc5c(c4C)COC5=O)CC3)CC2)cn1` [Example 141, (R)-5-(1-hydroxy-2-(9-(5-methoxypyrazin-2-yl)-3,9-diazaspiro[5.5]undecan-3-yl)ethyl)-4-methylisobenzofuran-1(3H)-one] reads 350 nM; that for `Cc1c([C@@H](O)CN2CCC3(CC2)CCN(c2ccnnc2)CC3)ccc2c1COC2=O` [Example 142, (R)-5-(1-hydroxy-2-(9-(pyridazin-4-yl)-3,9-diazaspiro[5.5]undecan-3-yl)ethyl)-4-methylisobenzofuran-1(3H)-one], 170 nM.
